From patent publication US20230192618A1, “CRYSTALLINE SALT FORMS OF N-(4-(4-(CYCLOPROPYLMETHYL)PIPERAZINE-1-CARBONYL)PHENYL)QUINOLINE-8-SULFONAMIDE” (Agios Pharmaceuticals, Inc., priority 2019, published 2023)

Experiments:
[1] = Crystalline stability by XRPD after 7 days at 40° C./75% RH; assay type: physicochemical; details: for Crystalline Stability (XRPD pattern): after 7 days at 40° C./75% RH
Description: (§1) The Rigaku Smart-Lab X-ray diffraction system was configured for reflection Bragg- Brentano geometry using a line source X-ray beam. The x-ray source was a Cu Long Fine Focus tube that was operated at 40 kV and 44 ma. That source provided an incident beam profile at the sample that changes from a narrow line at high angles to a broad rectangle at low angles. Beam conditioning slits were used on the line X-ray source to ensure that the maximum beam size was less than 10 mm both along the line and normal to the line. The Bragg-Brentano geometry was a para-focusing geometry controlled by passive divergence and receiving slits with the sample itself acting as the focusing component for the optics. The inherent resolution of Bragg-Brentano geometry was governed in part by the diffractometer radius and the width of the receiving slit used. Typically, the Rigaku Smart-Lab was operated to give peak widths of 0.1 °2θ or less. The axial divergence of the X-ray beam was controlled by 5.0-degree Soller slits in both the incident and diffracted beam paths.
(§2) Powder samples were prepared in a low background Si holder using light manual pressure to keep the sample surfaces flat and level with the reference surface of the sample holder. Each sample was analyzed from 2 to 40 °2θ using a continuous scan of 6 °2θ per minute with an effective step size of 0.02 °2θ.
(§3) The chemical purity analyzed by HPLC and crystalline stability by XRPD for each of the crystalline salt Forms A to M prepared according to the procedures described in Examples 1-13 are summarized in Table 14. In short, these salt forms all yielded a chemical purity higher than 99%.

[2] = Crystalline stability by XRPD after heating (removal of volatiles); assay type: physicochemical
Description: as §1, §2, §3

O=C(c1ccc(NS(=O)(=O)c2cccc3cccnc23)cc1)N1CCN(CC2CC2)CC1 [Form A]
crystalline stability by XRPD ([1]; 7 days at elevated temperature and relative humidity (e.g., 40° C./75% RH)): maintained their original forms | Crystalline Stability (XRPD pattern) ([1]; listed as Crystalline Besylate Salt FormA): no change in XRPD pattern after 7 days at 40° C./75% RH

O=C(c1ccc(NS(=O)(=O)c2cccc3cccnc23)cc1)N1CCN(CC2CC2)CC1 [Form B]
Crystalline Stability (XRPD pattern) ([2]; after heating to 120° C. (removal of volatiles)): no change in XRPD pattern after 7 days at 40° C./75% RH or after heating to 120 °C (removal of volatiles) | Crystalline Stability (XRPD pattern) ([1]; listed as Crystalline Fumarate Salt Form B): no change in XRPD pattern after 7 days at 40° C./75% RH or after heating to 120 °C (removal of volatiles)

O=C(c1ccc(NS(=O)(=O)c2cccc3cccnc23)cc1)N1CCN(CC2CC2)CC1 [Form C]
Crystalline Stability (XRPD pattern) ([1]; listed as Crystalline Fumarate Salt Form C): no change in XRPD pattern after 7 days at 40° C./75% RH

O=C(c1ccc(NS(=O)(=O)c2cccc3cccnc23)cc1)N1CCN(CC2CC2)CC1 [Form D]
Crystalline Stability (XRPD pattern) ([1]; listed as Crystalline Gentisate Salt Form D): no change in XRPD pattern after 7 days at 40° C./75% RH

O=C(c1ccc(NS(=O)(=O)c2cccc3cccnc23)cc1)N1CCN(CC2CC2)CC1 [Form E]
Crystalline Stability (XRPD pattern) ([1]; listed as Crystalline Gentisate Salt Form E): significant changes in XRPD pattern after 7 days at 40° C./75% RH

O=C(c1ccc(NS(=O)(=O)c2cccc3cccnc23)cc1)N1CCN(CC2CC2)CC1 [Form F]
Crystalline Stability (XRPD pattern) ([2]; after heating to 130° C. (removal of volatiles)): no change in XRPD pattern after 7 days at 40° C./75% RH or after heating to 130 °C (removal of volatiles) | Crystalline Stability (XRPD pattern) ([1]; listed as Crystalline Hydrochloride Salt Form F): no change in XRPD pattern after 7 days at 40° C./75% RH or after heating to 130 °C (removal of volatiles)

O=C(c1ccc(NS(=O)(=O)c2cccc3cccnc23)cc1)N1CCN(CC2CC2)CC1 [Form G]
Crystalline Stability (XRPD pattern) ([1]; listed as Crystalline Hydrochloride Salt Form G): unique XRPD pattern after 7 days at 40° C./75% RH

O=C(c1ccc(NS(=O)(=O)c2cccc3cccnc23)cc1)N1CCN(CC2CC2)CC1 [Form H]
Crystalline Stability (XRPD pattern) ([1]; listed as Crystalline Maleate Salt Form H): no change in XRPD pattern after 7 days at 40° C./75% RH

O=C(c1ccc(NS(=O)(=O)c2cccc3cccnc23)cc1)N1CCN(CC2CC2)CC1 [Form I]
Crystalline Stability (XRPD pattern) ([1]; listed as Crystalline Malonate Salt Form I): no change in XRPD pattern after 7 days at 40° C./75% RH

O=C(c1ccc(NS(=O)(=O)c2cccc3cccnc23)cc1)N1CCN(CC2CC2)CC1 [Form J]
Crystalline Stability (XRPD pattern) ([2]; after heating to 175° C. (removal of volatiles)): no change in XRPD pattern | Crystalline Stability (XRPD pattern) ([1]; listed as Crystalline Phosphate Salt Form J): additional peaks in XRPD pattern

O=C(c1ccc(NS(=O)(=O)c2cccc3cccnc23)cc1)N1CCN(CC2CC2)CC1 [Form K]
Crystalline Stability (XRPD pattern) ([1]; listed as Crystalline Phosphate Salt Form K): no change in XRPD pattern after 7 days at 40° C./75% RH

O=C(c1ccc(NS(=O)(=O)c2cccc3cccnc23)cc1)N1CCN(CC2CC2)CC1 [Form L]
Crystalline Stability (XRPD pattern) ([2]; after heating to 150° C. (removal of volatiles)): becomes non-crystalline | Crystalline Stability (XRPD pattern) ([1]; listed as Crystalline Tartrate Salt Form L): unique XRPD pattern

O=C(c1ccc(NS(=O)(=O)c2cccc3cccnc23)cc1)N1CCN(CC2CC2)CC1 [Form M]
Crystalline Stability (XRPD pattern) ([1]; listed as Crystalline Tosylate Salt Form M): no change in XRPD pattern after 7 days at 40° C./75% RH
